Data on 4 compounds can be found in ChEMBL document CHEMBL1201862, “PubChem BioAssay data set” (2004).

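Assay format: 96-well plates, 48-hour exposure. GI50 = concentration required for 50% inhibition of growth.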 The source made the active and inactive calls. Rule as the data show it: active = GI50 up to about 1.1 µM and inactive = higher.

Some test systems named below: NCI/ADR-RES; Hs-578T; SF-268; SN12C; MDA-MB-231; SR; TK-10; M14; A549; UO-31; OVCAR-4; MCF7; MDA-MB-435; SF-295; BT-549; CCRF-CEM; EKVX; LOX IMVI; HOP-62; SNB-75.
Holding throughout (experiment): DTP human tumour cell line panel, 48 h

For orientation: GI50 means the concentration that inhibits growth by half. For the compound `CCOP(=O)(C[S+](C)[O-])O[C@@H]1C[C@H](C)CC[C@H]1C(C)C` (stereo not given in full), the GI50 is 7.29 µM (inactive) with NCI/ADR-RES; 3.26 µM (inactive) in the test with Hs-578T; 6.44 µM (inactive) in the test with SF-268; 0.434 µM (active) in the test on SN12C; 3.03 µM (inactive) in the test with MDA-MB-231; 3.07 µM (inactive) in the test on SR. Also, the GI50 with TK-10 was 3.63 µM (inactive); in the test with M14 it was 8.3 µM (inactive); in the test on A549 it was 4.85 µM (inactive); in the test with UO-31 it was 1.17 µM (inactive); with OVCAR-4 it was 15 µM (inactive); in the test on MCF7 it was 3.08 µM (inactive). Also, the GI50 with MDA-MB-435 is 3.21 µM (inactive); in the test on SF-295, 5.6 µM (inactive); in the test with BT-549, 5.25 µM (inactive); in the test on CCRF-CEM, 2.43 µM (inactive); with EKVX, 3.33 µM (inactive); in the test with LOX IMVI, 1.77 µM (inactive). In addition, the GI50 was 5.53 µM (inactive) in the test with HOP-62 and 7.28 µM (inactive) in the test with SNB-75.
For `CCCCCCCCCC1CC(=O)NCC(=O)NC(C(C)C)C(=O)NC(CC(C)C)C(=O)NC(C)C(=O)NC(C(C)C)C(=O)O1` (stereo not given), the GI50 was > 100 µM (inactive) in the test on NCI/ADR-RES; 18 µM (inactive) in the test on Hs-578T; 4.55 µM (inactive) in the test with SF-268; 19.1 µM (inactive) in the test with SN12C; 10.2 µM (inactive) with MDA-MB-231; 13.3 µM (inactive) in the test on SR. Further, the GI50 in the test on TK-10 was 24.3 µM (inactive); with M14, 20.2 µM (inactive); with A549, 17.2 µM (inactive); in the test on UO-31, > 100 µM (inactive); in the test on OVCAR-4 it was 4.76 µM (inactive); in the test on MCF7, 17.8 µM (inactive). In addition, the GI50 was 10.4 µM (inactive) in the test on MDA-MB-435; 13.3 µM (inactive) with SF-295; 11.4 µM (inactive) in the test with BT-549; 15.7 µM (inactive) in the test with CCRF-CEM; 21.5 µM (inactive) in the test on EKVX; 7.96 µM (inactive) in the test with LOX IMVI. Also, the GI50 was 22.5 µM (inactive) in the test on HOP-62 and 12.3 µM (inactive) in the test on SNB-75.
For the compound `O=C(OCc1ccccc1)N1c2cc([N+](=O)[O-])ccc2C(=O)N2CCC[C@H]2C1O` (stereo not given in full), the GI50 in the test with NCI/ADR-RES, in the test with Hs-578T, in the test on SF-268, with SN12C, with MDA-MB-231 and in the test on SR was > 100 µM (inactive) in each case. In addition, the GI50 with TK-10, in the test with M14, in the test with A549, with UO-31, in the test with OVCAR-4 and with MCF7 was > 100 µM (inactive) in each case. For the same compound, the GI50 in the test on MDA-MB-435, with SF-295, in the test on BT-549, in the test on CCRF-CEM, with EKVX and in the test with LOX IMVI was > 100 µM (inactive) throughout. Besides, the GI50 in the test with HOP-62 and with SNB-75 was > 100 µM (inactive) throughout.
On to `CN1CN(c2ccccc2)C2(CCN(C(=O)OC(C)(C)C)CC2)C1=O`, for which the GI50 with NCI/ADR-RES is > 100 µM (inactive); in the test on Hs-578T, 57 µM (inactive); in the test on SF-268 it was > 100 µM (inactive); in the test with SN12C, > 100 µM (inactive); with MDA-MB-231, > 100 µM (inactive); in the test on SR it was > 100 µM (inactive). The GI50 in the test with TK-10, in the test with M14, in the test with A549, in the test with UO-31, in the test with OVCAR-4 and with MCF7 was > 100 µM (inactive) throughout. Further, the GI50 in the test on MDA-MB-435, in the test with SF-295, in the test with BT-549, with CCRF-CEM, in the test with EKVX and in the test on LOX IMVI was > 100 µM (inactive) in each case. Also, the GI50 with HOP-62 and in the test with SNB-75 was > 100 µM (inactive) in each case.
